Reference: patent publication EP4671239A1, “ARYL SUBSTITUENT-CONTAINING DEGRADATION AGENT FOR CDK12/13, PREPARATION METHOD THEREFOR, AND PHARMACEUTICAL COMPOSITION AND USE THEREOF” (Shanghai Institute of Organic Chemistry, Chinese Academy of …, priority 2023, dated 2024)
Like-named read-outs stand apart in the source and are kept apart here. Blank lines part the entries; values can stand above or below the molecule they belong to.

How the values were obtained:
CDK12 and CDK13 proteins [1] = test: Degradation activity on CDK12/13 in MDA-MB-231 cells (Western Blot); format: cell-based; conditions: 0.1µM or 0.3µM, 15 h, WB (FIG. 1)
Protocol: Experimental methods: The cell line MDA-MB-231 was purchased from the American Type Culture Collection (ATCC). Conventional Western Blot was used for detection, as follows: MDA-MB-231 cells were seeded at a density of 2 x 10^5/mL in a 12-well plate, with 1 mL per well, and cultured overnight in an incubator in an adherent manner. Then, a certain concentration of compounds was added to act for 15 h. The cells were lysed with a lysis buffer, and protein samples were collected. An appropriate amount of the sample was taken for SDS-PAGE electrophoresis. After electrophoresis, the protein was transferred to a polyvinylidene fluoride (PVDF) membrane using a wet electro-transfer system. The PVDF membrane after electro-transfer was cut into several required strips, which were then placed in a blocking solution (5% skim milk powder diluted in TBS containing 0.1% Tween 20) and blocked at room temperature for 1.5 h. A primary antibody solution was prepared by diluting a primary antibody against the corresponding target protein in TBS containing 0.1% Tween 20 according to the dilution requirements of different antibodies, such as 1:1000 (CST), 1:3000 (Proteintech, Bethyl), and 1:200 (Santacruz). The blocked membrane was placed in the corresponding primary antibody solution and incubated at 4°C for 12-14 h. Then, the cells were washed three times with TBS containing 0.1% Tween 20, each time for 5 min. After washing, the membrane was placed in a secondary antibody solution (horseradish peroxidase-labeled goat anti-rabbit IgG, diluted at 1:2000 in TBS containing 0.1% Tween 20) and reacted at room temperature for 2 h. After washing the membrane three times as above, the membrane was developed with StarSignal plus reagent (GenStar®) and Omni-ECL reagent (Yazyme®), and photographed with Amersham Imager 800 system.

[2] = Pharmacokinetics and bioavailability test in rats (Example 57); format: in vivo; conditions: SD rats; for MRT last: read-out: MRT(0-t); for MRT inf: read-out: MRT(0-∞)
Protocol: (§1) Pharmacokinetics and bioavailability tests in rats. SD rats were given a single oral (10 mg/kg), intravenous (2.5 mg/kg) and intraperitoneal (10 mg/kg) dose, followed by animal blood sample collection at appropriate time points. Heparin was added for anticoagulation, and the samples were centrifuged at 8000 rpm for 6 min. The supernatant was collected and stored at -20°C for HPLC-MS analysis. The blood samples underwent protein precipitation with acetonitrile at 12 000 rpm * 10 min, and the supernatant was used for HPCL-MS analysis. The data underwent parameter fitting with DAS2.0, to obtain compartmental model and non-compartmental model parameters, respectively. The oral bioavailability of the compounds was calculated based on the area under the plasma concentration-time curve (AUC) data. […] Table 1. Pharmacokinetic experimental results of compound zlc-4-93

CDK12 and CDK13 proteins [3] = test: Degradation activity on CDK12/13 in 22RV1 cells (Western Blot); format: cell-based
Protocol: Experimental methods: The cell line, 22RV1 cell line was purchased from the American Type Culture Collection (ATCC). Conventional Western Blot was used for detection as follows: 22RV1 cells were seeded in a certain number in a 12-well plate, and cultured overnight in an incubator in an adherent manner. […] The cells were lysed with a lysis buffer, and samples were collected. Then, an appropriate amount of the samples was taken for SDS-PAGE electrophoresis. After electrophoresis, the proteins were transferred to nitrocellulose membranes using a semi-dry electro-transfer system. The nitrocellulose membrane was placed in a blocking solution (5% skim milk powder diluted in TBS containing 0.1% Tween 20) and blocked at room temperature for 2 h. The membranes were then placed in a primary antibody solution (1: 1000 diluted in TBS containing 0.1% Tween 20), respectively, and incubated at 4°C overnight. The cells were washed three times with TBS containing 0.1% Tween 20, each time for 15 min. The membrane was placed in a secondary antibody solution (horseradish peroxidase-labeled goat anti-rabbit IgG, diluted at 1:1000 in TBS containing 0.1% Tween 20) and reacted at room temperature for 1 h. After washing the membrane three times as above, the membrane was developed with ECL plus reagent and photographed using Amersham Imager 600 system.

[4] = Pharmacokinetics and bioavailability test in rats (Example 60); format: in vivo; conditions: SD rats
Protocol: as §1, with “2.” for “1.”, “compounds YJZ9069 and YJZ1102” for “compound zlc-4-93”

[5] = system: prostate cancer VCap cells; test: Proliferation-inhibiting activity on VCap cells (CellTiter-Glo); format: cell-based; conditions: Homo sapiens; VCap cell line, CellTiter-Glo (FIG. 6)
Protocol: The cell proliferation-inhibiting activity of the compounds was determined using the CellTiter-Glo Luminescent Cell Viability Assay (Promega, Madison, WI). The cells were seeded in a 96-well plate in their respective culture media and incubated at 37°C in a 5% CO2 incubator. After overnight incubation, serial dilutions of the compounds were prepared and added to the 96-well plate. A volume of CellTiter-Glo reagent equal to the volume of the cell culture medium present in each well was added (e.g., 100 microliters of the reagent was added to 100 microliters of the culture medium for the cells in the 96-well plate). The contents were mixed on an orbital shaker for 2 min to induce cell lysis. The 96-well plate was incubated at room temperature for 10 minutes to stabilize a luminescent signal. Luminescence was recorded: the luminescence signal of each well was acquired using an Infinite M1000 Pro plate reader (Tecan, Zürich, Switzerland), and the data were analyzed using GraphPad Prism software (GraphPad Software Inc, La Jolla, CA).

[6] = Sprague-Dawley, rat, plasma, iv, i.v. 2.5 mg/kg
[7] = Sprague-Dawley, rat, plasma, Oral 10 mg/kg
[8] = Sprague-Dawley, rat, plasma, IV 2.5 mg/kg
[9] = Sprague-Dawley, rat, plasma, PO 10 mg/kg

Compound: N#Cc1ccc(N[C@H]2CC[C@H](N(C(=O)NCc3ccccc3)c3ccc(N4CCN(CC5CN(c6cc7c(cc6F)C(=O)N(C6CCC(=O)NC6=O)C7=O)C5)CC4)cc3)CC2)nc1 (stereo partly shown) [ZLC7-36]
degradation of CDK12 and CDK13 protein levels in cells (CDK12 and CDK13 proteins [1]): effectively degrade

Compound: N#Cc1ccc(N[C@H]2CC[C@H](N(C(=O)NCc3ccccc3)c3ccc(N4CCC(CN5CC6(C5)CN(c5ccc7c(c5)C(=O)N(C5CCC(=O)NC5=O)C7=O)C6)CC4)cc3)CC2)nc1 (stereo partly shown) [ZLC6-37]
degradation of CDK12 and CDK13 protein levels in cells (CDK12 and CDK13 proteins [1]): effectively degrade

F ([2]; Oral 10 mg/kg, bioavailability calculated from AUC): 16.46%
oral pharmacokinetic properties ([2]; summary in words of Table 1): excellent
AUC(0-inf) [2, 6]: 4740 ng·h/mL
AUC(0-t) [2, 6]: 4720 ng·h/mL
Cmax [2, 6]: 2590 ng/mL
Tmax [2, 6]: 0.08 h
clearance [2, 6]: 9.85 mL/min/kg
half-life [2, 6]: 2.38 h
MRT last [2, 6]: 2.37 h
MRT inf [2, 6]: 2.44 h
AUC(0-inf) [2, 7]: 3130 ng·h/mL
AUC(0-t) [2, 7]: 3110 ng·h/mL
Cmax [2, 7]: 308 ng/mL
Tmax [2, 7]: 4 h
half-life [2, 7]: 3.04 h
MRT last [2, 7]: 6.06 h
MRT inf [2, 7]: 6.19 h
Compound: N#Cc1ccc(N[C@H]2CC[C@H](N(C(=O)NCc3ccccc3)c3ccc(N4CCN(C5CCN(c6ccc7c(c6)C(=O)N(C6CCC(=O)NC6=O)C7=O)CC5)CC4)cc3)CC2)nc1 (stereo partly shown) [zlc-4-93]

Compound: O=C1CCC(N2C(=O)c3cc(F)c(N4CCC(N5CCN(c6ccc(N(C(=O)NCc7ccccc7)[C@H]7CC[C@H](Nc8ncc9ccccc9n8)CC7)cn6)CC5)CC4)cc3C2=O)C(=O)N1 (stereo partly shown) [YJZ1206]
degradation of CDK12 and CDK13 proteins (CDK12 and CDK13 proteins [3]; 22RV1 cells, 100 nM, 6 h (FIG. 5)): almost completely degrade
degradation of CDK12 and CDK13 protein levels in cells (CDK12 and CDK13 proteins [3]; 22RV1 cells, 500 nM, 6 hours, WB (FIG. 4)): effectively degrade
dose dependence of degradation of CDK12 and CDK13 proteins (CDK12 and CDK13 proteins [3]; 22RV1 cells, different concentrations, 6 h (FIG. 4B, FIG. 5)): dose-dependent manner
F ([4]; PO 10 mg/kg, bioavailability calculated from AUC): 39.16%
oral pharmacokinetic properties ([4]; summary in words of Tables 2-6): excellent
Cmax [4, 8]: 3120 ng/mL
Tmax [4, 8]: 0.08 h
clearance [4, 8]: 4.29 mL/min/kg
half-life [4, 8]: 5.15 h
Cmax [4, 9]: 1130 ng/mL
Tmax [4, 9]: 6 h
half-life [4, 9]: 6.24 h

Compound: O=C1CCC(N2C(=O)c3cccc(NCCCCCCCCCC(=O)N4CCN(c5cccc(N(C(=O)NCc6ccccc6)[C@H]6CC[C@H](Nc7ncc8ccccc8n7)CC6)c5)CC4)c3C2=O)C(=O)N1 (stereo partly shown) [YJZ9055]
induction of degradation of CDK12 and CDK13 proteins (CDK12 and CDK13 proteins [3]; cell line and concentration not given there): cannot effectively induce degradation
IC50 [5]: 2200 nM

Compound: N#Cc1ccc(N[C@H]2CC[C@H](N(C(=O)NCc3ccccc3)c3ccc(N4CCC5(CC4)CN(c4ccc6c(c4)C(=O)N(C4CCC(=O)NC4=O)C6=O)C5)cc3)CC2)nc1 (stereo partly shown) [ZLC6-103]
degradation of CDK12 and CDK13 protein levels in cells (CDK12 and CDK13 proteins [1]): effectively degrade
